Reference: patent US5393740A, “Neurotensin Hexapeptides” (Tsumura & Co., priority 1991, dated 1995)
Values belong to the compound of their own block, whether it stands above or below them. *1 amine or outer side, *2 acyl side, *3 side chain or, on linkers, in order; H or OH if unused. Where a SMILES comes first, the peptide text is derived from it. [ ]: non-standard residue; d: D form. X2 = CCCCN([C@@H](CCCNC(=N)N)C(=O)[*:2])[*:1]; Leu(ol) = CC(C)C[C@H](N)CO

What was measured:
ddY mice = experiment: Acute toxicity test; type: in vivo, mouse; details: intravenous injection, 2,000 times (64 μmol/kg) the effective amount
Experimental: An acute toxicity test of peptides Nos. 1, 31 and 32 of the present invention was performed by using, ddY mice. […] No toxic expression was therefore observed.

thrombin = thrombin (Homo sapiens, UniProt P00734); experiment: Protease inhibition action (thrombin, synthetic coloring base S-2238); type: biochemical; details: thrombin final conc. 10 U/ml, preincubated at 37° C. for 5 minutes, S-2238 37° C. 15 minutes, 405 nm
Experimental: Each of peptides Nos. 1, 31 to 34 was mixed at various volume with thrombin (final conc. 10 U/ml), and the resultant mixture was preincubated at 37° C. for 5 minutes. A synthetic coloring base (Test Team^R S-2238 available from Daiichi Kagaku Yakuhin) was added to the above preincubated mixture and was reacted at 37° C. for 15 minutes.
2% citric acid was added to the above mixture to stop the reaction. Hydrolysis was performed using residual thrombin, and free p-nitroaniline removed from the synthetic coloring base was subjected to colorimetric determination at a wavelength of 405 nm, thereby obtaining the inhibition capability with reference to 0.1M tris buffer. On the base of the inhibition capability thus obtained, a concentration of the peptides when each peptide inhibited the activity of thrombin with 50%, i.e. IC50 was calculated.

Wister rats = experiment: Anti-allergic action (passive cutaneous anaphylaxis reaction); type: in vivo, rat; details: PCA reaction, 32 nmol g/kg i.v. 10 minutes before provocation, control 188.3 ± 9.71
Experimental: In this experiment, 6-week, male Wister rats (each group consisted of 10 rats) were used, and the back of these rats were shaved.
An anti-egg albumin rat serum was diluted with a saline to forty-fold of its volume, thereby obtaining an anti-egg albumin rat serum solution. 1 ml of the anti-egg albumin rat serum solution was intradermally injected to both side parts against the median line in the shaved portion, thereby sensitizing passively the rats. After 48 hours, 1 ml of a 0.5% Evans blue solution containing 10 mg of a egg-albumin was intravenously injected to the each rat, thereby provocating a passive cutaneous anaphylaxis (PCA) reaction.
After 30 minutes, the rats were decapitated, thereby subjecting to hemorrhage to death. The skins were peeled from the rats, and a long diameter and a short diameter of a blue stained portions caused by the PCA reaction in each rat were measured, and area of the blue-stained portions were calculated on the base of the obtained data.
In these operations, the of peptides Nos. 1, 31 and 32 were dissolved in a sodium acetate buffered solution containing 1% BSA and was intravenously injected to each rat at 10 minutes before the provocation of the PCA reaction. As a control, the sodium acetate buffer solution containing 1% BSA instead of the peptide solutions was injected according to same procedure as described above.

SD rats = experiment: Wound healing action (traction tension of skin wound); type: in vivo, rat; details: skin wound stripe, eighth day; 32 nmol/kg i.v. once a day for 8 days; male SD rats; control 456.2 ± 21.6
Source text: The male SD rats (each group consisted of 10 rats) were anesthetized with ether and shaved in the back of the each rat, and the anesthetized portion was formed by a length of 30 mm along the median line by using a degreased, sterilized razor blade. The wound was immediately sutured at three equidistant positions, and the stitches were taken out after three days. The rats were subjected to hemorrhage to death in the eighth day, and the skins were peeled from the rats.
A skin stripe having a size of 1 cm×4 cm was formed from a wounded portion of each rat. Both ends of this stripe were set in a wound curing measurement tensile test instrument (TK-251 available from Unicom), and a tensile force (traction tension: g/cm) required to cut the wound portion was measured.
Each hexapeptide compound according to the present invention was dissolved in an acetic acid buffer solution added with 1% BSA and was intravenously injected to each rat for 8 days (once a day) from the date of wound formation. As a control, 1 ml/kg of the sodium acetat buffered solution added with 1% BSA instead of the hexapeptide solutions was injected according to same procedure as described above.

Wistar rats = experiment: Anti-edematous action (freezing-induced vascular cerebral edema); type: in vivo, rat; details: left cerebral cortex, 32 nmol/kg i.v. 10 minutes before and 20 minutes after the freezing, male Wistar rats, control 81.4
Experimental: In this experiment, 8-week male Wistar rats were used, and peptides Nos. 1, 31 and 32 dissolved in a saline added with 1% BSA were used.
Iron column whose diameter was 5 mm cooled by dryice acetone was placed on the left epidural portion of each rat to cause a vascular cerebral edema. Freezing was performed to form an injured portion after an hour, and the brain of each rat was taken out. The brain was divided into right and left cerebral cortices, and weights of the left cerebral cortices were measured. The left cerebral cortices was dried at 105° C. for 24 hours, and weights of the dried left cerebral cortices were measured to obtain water contents (%). In this operations, the peptides Nos. 1, 31 and 32 were intravenously injected at the concentration shown in Table 6 to each rat 10 minutes before and 20 minutes after the freezing. As a control, 1 ml/kg of the saline added with 1% BSA instead of the peptides was injected into rat according to same procedures as described above.

ICR mice = experiment: Anti-shock action (endotoxin-induced lethality); type: in vivo, mouse; details: 32 nmol/kg × 4 intravenously, endotoxin (LPS E. coli 0127B8) 10 mg/kg i.v. after 10 minutes; male ICR mice; control 80
Experimental: In this experiment, male ICR mice (each group consisted of 10 mice) each having a weight of 25 g to 35 g were used. Each of peptides Nos. 1, 31 and 32 was dissolved in a sodium acetate buffered solution (pH 6.0) added with 1% BSA or in a physiological saline.
An endotoxin to induce a shock was obtained by dissolving Lipopolysaccharide [E. coli; 0127B8 (Difco)] in a physiological saline.
Each of peptialdes Nos. 1, 31 and 32 was intravenously injected at a by dose of 5 ml/kg to each mouse, and the endotoxin with concentration of 10 mg/kg was intravenously injected at a dose of 5 ml/kg after 10 minutes. The lethal rates (%) of these mice within 24 hours were measured. As a control, 5 ml/kg of the sodium acetate buffered solution added with 1% BSA was injected instead of the hexapeptide of the present invention.

Hybrid grown-up dogs = experiment: Anti-DIC action (platelet number after endotoxin); type: in vivo, dog
Experimental: Hybrid grown-up dogs (each group consisted of six dogs) were used in this experiment. 30 mg/kg of pentobarbital were intravenously injected to anesthetize each dog. Intravenous injection of 32 nmol/kg of each of peptides Nos. 1, 31 and 32 was performed. After 30 minutes, 3 mg/kg of an endotoxin derived from Escherichia Coli were intravenously injected while the artificial respiration was performed with air.
Samples of blood were collecting from each dog immediately before the injection of the peptides and 120 minutes after the injection of the endotoxin.
As a control, a experiment was performed according to same procedure as described above except that the hexapeptides was not injected.
The number of platelets is the number per 1 mm^3 (1 μl) of the blood in Table 7.

Sprague-Dawley (SD) rats = experiment: Vascular permeability acceleration suppression action (hot-water leg edema); type: in vivo, rat; details: suppression of rate of increase in leg volume vs control; 1 ml/kg into femoral vein 10 minutes before dipping leg in 58° C. hot water for one minute; male SD rats
Experimental: After 6-week male Sprague-Dawley (SD) rats (each group consisted of 10 rats) were fed for a week, they were used in this experiment.
The concentrations of samples of the hexapeptides (peptide Nos. 1 to 30) were dissolved by an acetic acid buffer solution added with a 1% bovine serum albumin (BSA).
An aliqrot of 1 ml/kg of each of the peptides Nos. 1 to 30 was injected into the femoral vein of the right leg of each rat anesthetized with 50 mg/kg of Nembutal Sodium (available from Dainippon Pharmaceutical Co., Ltd.). After 10 minutes, the nontreated left leg of the rat was dipped in 58° C. hot water for one minute to form an edema. Each rat was left at room temperature for 29 minutes, and the volumes of both legs of each rat were measured. As a control, the experiment following the same procedure as describe above was performed except that 1 ml/kg of a sodium acetate buffered solution containing 1% BSA instead of the hexapeptide of the present invention was injected in rats.
A rate (%) of increase in leg volume was calculated from the result of the above measurement by equation (1) below: [formula]
The rates were compared with that of the control.
- X: rate of increase in leg volume (%) of the present invention.
Xo: rate of increase in leg volume (%) of the control

Compound: CC[C@H](C)[C@H](NC(=O)[C@H](Cc1ccc(O)cc1)NC(=O)[C@@H]1CCCN1C(=O)[C@H](CCCNC(=N)N)NC(=O)CCCCNC(=N)N)C(=O)N[C@@H](CC(C)C)C(=O)O [Peptide No. 1, Desamino-Arg--Arg--Pro--Tyr--Ile--Leu--OH]
acute toxicity (death) (ddY mice): No mice were dead
IC50 (thrombin): 2500 nM

Compound: CC[C@H](C)[C@H](NC(=O)[C@H](Cc1ccc(O)cc1)NC(=O)[C@@H]1CCCN1C(=O)[C@H](CCCNC(=N)N)NC(=O)[C@H](CCCNC(=N)N)NC(C)=O)C(=O)N[C@H](CO)CC(C)C [Peptide No. 31, N-acetyl--Arg--Arg--Pro--Tyr--Ile-Leucinol]
acute toxicity (death) (ddY mice): No mice were dead
IC50 (thrombin): 2300 nM

Compound: CC[C@H](C)[C@H](NC(=O)[C@H](Cc1ccc(O)cc1)NC(=O)[C@@H]1CCCN1C(=O)[C@H](CCCNC(=N)N)NC(=O)[C@H](CCCNC(=N)N)NC(C)=O)C(=O)N[C@@H](CC(C)C)C(N)=O [Peptide No. 32, N-acetyl--Arg--Arg--Pro--Tyr--Ile--Leu--NH2]
acute toxicity (death) (ddY mice): No mice were dead
Area of blue-stained portion (mm^2) (Wister rats): 112.8 ± 4.83 mm^2
Traction Tension (SD rats): 547.0 ± 32.3 g/cm
Water Content (%) (Wistar rats): 80.6%
Lethal rate within 24 hours (%) (ICR mice): 20%
IC50 (thrombin): 2200 nM
Average Number of Platelets 120 Minutes after Venous Injection of Endotoxin (Hybrid grown-up dogs; 32 nmol/kg i.v. 30 minutes before 3 mg/kg E. coli endotoxin i.v., control 43 × 10^4): 58 × 10^4 per 1 mm^3 (1 μl) of the blood
Average Number of Platelets Immediately before Injection Endotoxin (Hybrid grown-up dogs; 32 nmol/kg i.v., baseline sample, control 72 × 10^4): 71 × 10^4 per 1 mm^3 (1 μl) of the blood

IC50 (thrombin): 2300 nM
Compound: CCCCN[C@@H](CCCNC(=N)N)C(=O)N[C@@H](CCCNC(=N)N)C(=O)N1CCC[C@H]1C(=O)N[C@@H](Cc1ccc(O)cc1)C(=O)N[C@H](C(=O)N[C@H](CO)CC(C)C)[C@@H](C)CC [Peptide No. 33, N-buthyl--Arg--Arg--Pro--Tyr--Ile--Leucinol] (H-[X2]RPYI[Leu(ol)])

Compound: Desamino-Arg-D-Lys--Pro--Trp--Ile-Leucinol [Peptide No. 23]
Suppression Rate (%) (Sprague-Dawley (SD) rats): 20.8%
